Patent US20230270711A1, “Improved Anti-Hangover Composition, Its Preparation and Uses” (Zobrius Pharma AS, priority 2019, published 2023)

What was measured:
[1] = system: alcohol metabolism; assay: Clinical Study Protocol: alcohol metabolism from BAC (CA 2000 Digital Alcohol Detector), Examples 1 and 2; assay type: in vivo, human; details: in the 500 ml Composition A (90 g fructose)
Experimental: Clinical Study Protocol—The studies presented in Examples 1 and 2 were carried out with 10 individuals (6 males and 4 females, aged 24-57 years).
In the control study (using water alone as the after-alcohol drink), the test persons were given 8 oz. (ca.2.4 dl) of vodka mixed with 6 dl Sprite® (The Coca Cola Company). The alcohol was consumed within one hour. At a given time, 30-60 minutes after alcohol consumption, each person drank a given volume of water (control composition). The alcohol level was then measured as described below.
One week later, a second study was carried out, wherein the same test persons were given the same amounts of vodka and Sprite®, respectively. At the given time after alcohol consumption, each test person drank the given volume of a test composition. The alcohol level was then measured as described just below.
Blood alcohol concentration (BAC) was measured, using a CA 2000 Digital Alcohol Detector, once every 30 minutes in each experiment. Each value is an average of four parallel measurements. Evaluation of effect against hangover was graded on a scale from 1-10 (where 10 represents the greatest effect).
The study protocol was carried out as described above, wherein the test composition comprised Comparative Composition A (defined below); the given time was 45 minutes; and the given volume was 500 ml. […]

[2] = biological target: LADH; details: read-out: Ki, inhibition of LADH; cited from earlier work

Compound | Contribution of fructose to the acceleration of alcohol degradation [1] | Ki [2]
O=C(CO)[C@@H](O)[C@H](O)[C@H](O)CO [fructose] | 20-25% | 
NC(=O)C1=CN([C@@H]2O[C@H](COP(=O)(O)OP(=O)(O)OC[C@H]3O[C@@H](n4cnc5c(N)ncnc54)[C@H](O)[C@@H]3O)[C@@H](O)[C@H]2O)C=CC1 [NADH] |  | 56 µM
